Experimental data from patent US20230102192A1, “THERAPIES FOR THE TREATMENT OF DISEASES AND DISORDERS ASSOCIATED WITH ABNORMAL EXPRESSION OF A NEURAL-ASSOCIATED GENE” (The Regents of the University of California, priority 2020, published 2023).
Where two headings read alike, the source gives them in different places.

Columns and labels:
[1] = system: MECP2-KO cortical organoids; assay: Cortical organoid diameter; type: cell-based, human; details: 1 μM for one month, 2-month old organoids
Procedure: Generation of cortical organoids. Cortical organoid generation was performed according to Trujillo et al. (Cell Stem Cell 25:558-569.e7 (2019)). iPSCs cultured 5-7 d were dissociated with 1:1 Accutase (Life Technologies) in PBS, and 4×10^6 cells/well in mTeSR1 supplemented with 10 μM SB (Stemgent), 1 μM Dorso (R&D Systems), and 5 μM Y-27632 (EMD-Millipore, Burlington, Mass., USA) were plated on rotating suspension. […]
(§1) Nefiracetam and PHA 543613 rescue network activity in MECP2-KO cortical organoids. The therapeutic efficacy of Nefiracetam and PHA 543613 was evaluated with cortical organoids, a complex, three-dimensional human neurodevelopmental model that closely recapitulates aspects of human fetal neurodevelopment. […]

[2] = cited from earlier work
GABAA receptor = details: read-out: affinity for the GABAA receptor (IC50); cited from earlier work
[3] = system: MECP2-KO cortical organoids; assay: Synapsin1+ puncta quantitation in cortical organoids; type: cell-based, human; details: 1 μM for one month, vs untreated
Procedure: Immunofluorescence of cells and cortical organoids. Immunofluorescence was performed as described in Chailangkam et al. Cells fixed in 4% PFA were PBS-washed and permeabilized/blocked (0.1% Triton X-100, 2% BSA). Cortical organoids fixed in 4% PFA were transferred to 30% sucrose, sunken, embedded in O.C.T. (Sakura, Tokyo, Japan), and cryostat-sectioned. Air-dried slides with organoid sections were permeabilized/blocked (0.1% Triton X-100, 3% FBS, PBS). […] Slides or coverslips were mounted with ProLong Gold anti-fade mountant (Life Technologies) and analyzed with a Z1 Axio Observer Apotome fluorescence microscope (Zeiss, Oberkochen, Germany).
as §1

MECP2-KO neurons = assay: Neuronal morphology (neurites, spine density); type: cell-based, human; details: vs KO untreated
[4] = target: α7 subtype of neural nicotinic acetylcholine receptors (Homo sapiens, UniProt P36544); details: cited from earlier work
[5] = in vivo, cited from earlier work

Chain of α7 subtype of neural nicotinic acetylcholine receptors (P36544 23-502): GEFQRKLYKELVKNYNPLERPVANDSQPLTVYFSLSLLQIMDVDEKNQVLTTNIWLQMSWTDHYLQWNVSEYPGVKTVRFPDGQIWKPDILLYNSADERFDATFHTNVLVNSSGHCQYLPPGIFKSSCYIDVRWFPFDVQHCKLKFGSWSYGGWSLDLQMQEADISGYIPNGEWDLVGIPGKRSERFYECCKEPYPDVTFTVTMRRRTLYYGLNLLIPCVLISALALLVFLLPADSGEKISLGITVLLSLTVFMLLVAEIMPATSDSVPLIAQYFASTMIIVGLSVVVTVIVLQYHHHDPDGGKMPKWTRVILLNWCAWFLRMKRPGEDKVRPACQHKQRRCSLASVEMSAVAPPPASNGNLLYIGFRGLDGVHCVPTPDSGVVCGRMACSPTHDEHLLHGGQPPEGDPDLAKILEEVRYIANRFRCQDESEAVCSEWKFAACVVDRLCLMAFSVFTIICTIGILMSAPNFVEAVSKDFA

Cc1cccc(C)c1NC(=O)CN1CCCC1=O [Nefiracetam, nefiracetam]
diameter of MECP2-KO organoids [1]: increased
toxicity during clinical trials ([2]; clinical trials): no evidence of toxicity
toxicity on long-term consumption ([2]; humans and primates): no toxicity
IC50 (GABAA receptor): 8.5 nM
synaptic puncta (Synapsin1+) [3]: increase
spine density / neuronal spine-like protrusions (MECP2-KO neurons): rescued or partially rescued

O=C(N[C@H]1CN2CCC1CC2)c1cc2ccoc2cn1 [PHA 543613, N-[(3R)-1-azabicyclo[2.2.2]oct-3-yl]furo[2,3-c]pyridine-5-carboxamide]
agonist activity at α7 nAChR [4]: potent and selective agonist
brain penetration [5]: rapid brain penetration
oral bioavailability [5]: high oral bioavailability
brain penetration ([5]; listed as PHA-543613): high level of brain penetration
oral bioavailability ([5]; listed as PHA-543613): good oral bioavailability
diameter of MECP2-KO organoids [1]: increased
spine density / neuronal spine-like protrusions (MECP2-KO neurons): rescued or partially rescued
